Consider nine compounds from US12187699B2, “GSPT1 compounds and methods of use of the novel compounds” (BRISTOL-MYERS SQUIBB COMPANY, priority 2022, dated 2025).

This test addresses T1, ePL-tagged GSPT1 (Homo sapiens, UniProt P15170+Q96SW2).
T1 construct: expressed in transfected cells; host or cells: DF15 multiple myeloma cells
Put plainly: GSPT1 DiscoverX Degradation Assay. Format: cell-based. Conditions: DF15 multiple myeloma cells expressing ePL-tagged GSPT1; twenty hours; minimum of percent of control curve (Ataluren control Y constant=0, DMSO control = Y max). The protocol:
GSPT1 DiscoverX Degradation Assay.
Compounds were dispensed by an acoustic dispenser (ATS Acoustic Transfer System from EDC Biosystems) into a 384-well in a 10 pt dose response curve using 3 fold dilutions starting at 10 uM and going down to 0.0005 uM in DMSO. A DMSO control is added to the assay. […] Assay plates were incubated at 37° C. with 5% CO2 for twenty hours. After incubation, 25 μl of the InCELL Hunter™ Detection Reagent Working Solution (DiscoverX, cat #96-0002, Fremont, CA) was added to each well and incubated at room temperature for 30 minutes protected from light. After 30 minutes, luminescence was read on a PHERAstar luminometer (Cary, NC).
The minimum Y is reference to the Y constant. In the GSPT1 degradation assay, we use Ataluren® (luciferase inhibitor) as the control with a Y constant=0. The maximum limit is the Y max DMSO control. All percent of control GSPT1 degradation curves were processed and evaluated using Activity Base (IDBS).

T1 sequence (P15170 whole entry): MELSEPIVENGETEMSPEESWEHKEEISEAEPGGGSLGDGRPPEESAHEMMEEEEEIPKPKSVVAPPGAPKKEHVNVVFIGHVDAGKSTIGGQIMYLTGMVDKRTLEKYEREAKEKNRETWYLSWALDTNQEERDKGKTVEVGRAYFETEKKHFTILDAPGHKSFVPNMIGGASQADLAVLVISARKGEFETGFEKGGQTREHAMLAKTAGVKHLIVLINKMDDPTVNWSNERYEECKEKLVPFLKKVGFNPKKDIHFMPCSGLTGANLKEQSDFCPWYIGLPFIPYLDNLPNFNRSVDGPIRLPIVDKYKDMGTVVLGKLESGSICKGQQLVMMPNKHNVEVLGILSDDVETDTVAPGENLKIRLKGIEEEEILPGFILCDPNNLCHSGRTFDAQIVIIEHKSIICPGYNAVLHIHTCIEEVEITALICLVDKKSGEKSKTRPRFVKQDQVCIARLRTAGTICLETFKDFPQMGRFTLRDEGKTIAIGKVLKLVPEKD
T1 sequence (Q96SW2 whole entry): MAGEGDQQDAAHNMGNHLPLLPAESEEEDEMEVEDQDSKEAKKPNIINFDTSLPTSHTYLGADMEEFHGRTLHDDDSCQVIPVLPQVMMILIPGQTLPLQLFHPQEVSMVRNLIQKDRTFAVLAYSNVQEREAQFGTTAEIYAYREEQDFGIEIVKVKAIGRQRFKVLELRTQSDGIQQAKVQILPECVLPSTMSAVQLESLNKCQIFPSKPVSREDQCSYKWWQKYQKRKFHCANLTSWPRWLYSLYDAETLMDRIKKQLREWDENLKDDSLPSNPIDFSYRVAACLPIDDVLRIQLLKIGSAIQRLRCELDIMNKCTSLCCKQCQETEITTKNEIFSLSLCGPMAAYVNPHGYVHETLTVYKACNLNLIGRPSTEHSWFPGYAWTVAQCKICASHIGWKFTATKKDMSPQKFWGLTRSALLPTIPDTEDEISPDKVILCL
T1 sequence (Q16531 whole entry partner): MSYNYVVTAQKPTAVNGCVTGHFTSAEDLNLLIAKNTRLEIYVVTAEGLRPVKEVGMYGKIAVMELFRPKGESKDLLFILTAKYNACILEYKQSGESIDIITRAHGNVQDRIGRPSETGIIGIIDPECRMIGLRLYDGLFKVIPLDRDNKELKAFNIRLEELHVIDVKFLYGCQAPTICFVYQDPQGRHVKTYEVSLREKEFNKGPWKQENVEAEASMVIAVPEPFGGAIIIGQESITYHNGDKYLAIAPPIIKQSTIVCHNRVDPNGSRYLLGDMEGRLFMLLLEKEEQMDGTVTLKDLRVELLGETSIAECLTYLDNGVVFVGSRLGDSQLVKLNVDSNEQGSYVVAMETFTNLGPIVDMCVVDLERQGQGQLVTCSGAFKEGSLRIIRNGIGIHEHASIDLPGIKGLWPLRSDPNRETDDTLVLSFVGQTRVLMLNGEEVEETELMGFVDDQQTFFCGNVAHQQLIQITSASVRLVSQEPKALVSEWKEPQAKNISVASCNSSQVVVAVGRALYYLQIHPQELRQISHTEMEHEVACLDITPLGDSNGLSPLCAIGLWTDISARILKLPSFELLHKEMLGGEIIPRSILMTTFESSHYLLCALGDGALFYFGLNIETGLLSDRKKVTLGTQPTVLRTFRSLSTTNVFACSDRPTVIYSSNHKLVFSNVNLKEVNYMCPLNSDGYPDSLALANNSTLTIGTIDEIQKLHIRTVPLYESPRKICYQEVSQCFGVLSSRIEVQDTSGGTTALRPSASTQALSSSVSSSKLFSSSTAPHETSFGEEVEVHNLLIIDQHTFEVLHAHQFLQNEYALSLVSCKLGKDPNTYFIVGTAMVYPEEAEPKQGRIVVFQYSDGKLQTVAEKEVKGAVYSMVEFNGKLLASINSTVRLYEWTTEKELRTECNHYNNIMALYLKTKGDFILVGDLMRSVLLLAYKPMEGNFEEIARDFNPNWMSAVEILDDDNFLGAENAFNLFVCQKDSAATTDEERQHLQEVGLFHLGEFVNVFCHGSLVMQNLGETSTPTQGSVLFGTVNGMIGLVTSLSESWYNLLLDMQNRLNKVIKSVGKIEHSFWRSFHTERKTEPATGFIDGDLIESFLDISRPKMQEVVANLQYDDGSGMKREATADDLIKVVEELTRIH

As to `NCc1ccc(COc2ccc(NC(=O)NCc3ccc4c(c3)CN(C3CCC(=O)NC3=O)C4=O)cc2)c(C2CC2)c1` (stereo not drawn) [Example 27, 1-(4-{[4-(aminomethyl)-2-cyclopropylphenyl]methoxy}phenyl)-3-{[2-(2,6-dioxopiperidin-3-yl)-1-oxo-2,3-dihydro-1H-isoindol-5-yl]methyl}urea], the “GSPT1 Degradation Ymin” value is given as 6.15.
With `Nc1ccccc1COc1ccc(NC(=O)NCc2ccc3c(c2)CN(C2CCC(=O)NC2=O)C3=O)cc1` (stereo not drawn) [Example 28, 1-(4-((2-aminobenzyl)oxy)phenyl)-3-((2-(2,6-dioxopiperidin-3-yl)-1-oxoisoindolin-5-yl)methyl)urea], the “GSPT1 Degradation Ymin” value is reported as 10.20.
Next, `NCc1ccc(COc2ccc(NC(=O)NCc3ccc4c(c3)CN(C3CCC(=O)NC3=O)C4=O)cc2Cl)cc1` (stereo not drawn) [Example 29, 1-(4-((4-(aminomethyl)benzyl)oxy)-3-chlorophenyl)-3-((2-(2,6-dioxopiperidin-3-yl)-1-oxoisoindolin-5-yl)methyl)urea]: 16.88.
To `CC(C)c1cc(CN)ccc1COc1ccc(NC(=O)NCc2ccc3c(c2)CN(C2CCC(=O)NC2=O)C3=O)cc1` (stereo not drawn) [Example 30, 1-(4-{[4-(aminomethyl)-2-i-propylphenyl]methoxy}phenyl)-3-{[2-(2,6-dioxopiperidin-3-yl)-1-oxo-2,3-dihydro-1H-isoindol-5-yl]methyl}urea] belongs 10.86; to `NCc1ccc(COc2ccc(NC(=O)NCc3ccc4c(c3)CN(C3CCC(=O)NC3=O)C4=O)cc2)c(OC(F)F)c1` (stereo not drawn) [Example 31, 1-(4-{[4-(aminomethyl)-2-diflouromethoxyphenyl]methoxy}phenyl)-3-{[2-(2,6-dioxopiperidin-3-yl)-1-oxo-2,3-dihydro-1H-isoindol-5-yl]methyl}urea], 7.07; to `C[C@]1(N2Cc3cc(CNC(=O)Nc4ccc(OCc5ccc(CN)cc5)cc4)ccc3C2=O)CCC(=O)NC1=O` [Example 32, 1-(4-{[4-(aminomethyl)phenyl]methoxy}phenyl)-3-({2-[(3S)-3-methyl-2,6-dioxopiperidin-3-yl]-1-oxo-2,3-dihydro-1H-isoindol-5-yl}methyl)urea], 22.76.
To `C[C@@]1(N2Cc3cc(CNC(=O)Nc4ccc(OCc5ccc(CN)cc5)cc4)ccc3C2=O)CCC(=O)NC1=O` [Example 33, 1-(4-{[4-(aminomethyl)phenyl]methoxy}phenyl)-3-({2-[(3R)-3-methyl-2,6-dioxopiperidin-3-yl]-1-oxo-2,3-dihydro-1H-isoindol-5-yl}methyl)urea] belongs 60.95; to `NC[C@H]1CC[C@H](COc2ccc(NC(=O)NCc3ccc4c(c3)CN(C3CCC(=O)NC3=O)C4=O)cc2)CC1` (stereo partly drawn) [Example 34, 3-{[2-(2,6-dioxopiperidin-3-yl)-1-oxo-2,3-dihydro-1H-isoindol-5-yl]methyl}-1-(4-{[(1r,4r)-4-(aminomethyl)cyclohexyl]methoxy}phenyl)urea], 7.47.
In the case of `NCc1ccc(CO[C@H]2CC[C@H](NC(=O)NCc3ccc4c(c3)CN(C3CCC(=O)NC3=O)C4=O)CC2)cc1` (stereo partly drawn) [Example 35, 3-{[2-(2,6-dioxopiperidin-3-yl)-1-oxo-2,3-dihydro-1H-isoindol-5-yl]methyl}-1-[(1r,4r)-4-{[4-(aminomethyl)phenyl]methoxy}cyclohexyl]urea], the “GSPT1 Degradation Ymin” value turned out to be 17.59.
